Source: ChEMBL document CHEMBL1145357, “Antitumor anthraquinones from an endophytic actinomycete Micromonospora lupini sp. nov” (Bioorg Med Chem Lett, 2007)
Activity calls are given as the source filed them. The calls are words filed in the database; no cut-off is given here.

Tests used:
[1] = Inhibition of invasion of mouse 26-L5 cells; format: functional
Mus musculus = organism: Mus musculus; assay: Growth inhibition of mouse 26-L5 cells at 3 ug/ml by WST1 method; format: functional

IC50 [1] [nM]	SMILES	Activity (Mus musculus)
210	Cc1c(O)c(CCC(C)C)c2c(c1O)C(=O)c1cccc(O)c1C2=O [LUPINACIDIN A]	Active
920	CCCCc1c(O)c(C)c(O)c2c1C(=O)c1c(O)cccc1C2=O [LUPINACIDIN B]	inactive
